Reference: patent US20030162762A1, “Novel cephalosporin compounds and process for preparing the same” (priority 2000, published 2003)
In brackets after ≈: the same amount, converted by molar mass. Where two headings read alike, the source gives them in different places.

Key:
Assay in all cases: Minimum Inhibitory Concentration (MIC), agar dilution, standard strains
S. aureus 77 = format: cell-based, Staphylococcus aureus; details: Mueller-Hinton agar, 37° C., 20 hours; for MIC: Staphylococcus aureus, 77, read-out: Minimum Inhibitory Concentration, S. aureus 77
Experimental: (§1) The effectiveness of the compound according to the present invention was determined by obtaining Minimum Inhibitory Concentration (MIC) of the compounds prepared by the above examples (Compounds I-1 to I-41) and vancomycin, which is the known compound having a potent activity against gram-positive strains, as the control drug against the standard strains. Specifically, Minimum Inhibitory Concentration was obtained by diluting the test compound according to a double dilution method, dispersing them in Mueller-Hinton agar medium, inoculating each of the test strain having 10^7 cfu (colony forming unit) per ml in an amount of 2 μl to the medium and then incubating them at 37° C. for 20 hours. From the result of Minimum Inhibitory Concentration test, it can be seen that the compound according to the present invention has a good activity against major pathogenic microorganisms, which cause hospital infection, including MRSA strains.

S. aureus K311 = format: cell-based, Staphylococcus aureus; details: Staphylococcus aureus, K311; Table 2; Mueller-Hinton agar, 37° C., 20 hours; read-out: Minimum Inhibitory Concentration, S. aureus K311
Experimental: as §1

E. faecalis EFS004 = format: cell-based; details: Enterococcus faecalis, EFS004; Table 2; Mueller-Hinton agar, 37° C., 20 hours; read-out: Minimum Inhibitory Concentration, E. faecalis EFS004
Experimental: as §1

[1] = test system: Staphylococcus aureus giorgio; format: cell-based; details: Mueller-Hinton agar, 37° C., 20 hours; for MIC: Staphylococcus aureus, read-out: Minimum Inhibitory Concentration, Staphylococcus aureus giorgio
Experimental: as §1

S. epidermidis R005 = format: cell-based; details: Mueller-Hinton agar, 37° C., 20 hours; for MIC: Staphylococcus epidermidis, R005, read-out: Minimum Inhibitory Concentration, S. epidermidis R005
Experimental: as §1

S. aureus 241 = format: cell-based, Staphylococcus aureus; details: Table 1, Mueller-Hinton agar, 37° C., 20 hours; for MIC: Staphylococcus aureus, 241, read-out: Minimum Inhibitory Concentration, S. aureus 241
Experimental: as §1

E. faecalis L239 = format: cell-based; details: Table 1, Mueller-Hinton agar, 37° C., 20 hours; for MIC: Enterococcus faecalis, L239, read-out: Minimum Inhibitory Concentration, E. faecalis L239
Experimental: as §1

| SMILES | Minimum Inhibitory Concentration, S. aureus 77 (S. aureus 77; Table 1) | Minimum Inhibitory Concentration, S. aureus 241 (S. aureus 241) | Minimum Inhibitory Concentration, Staphylococcus aureus giorgio ([1]; Table 1) | Minimum Inhibitory Concentration, S. epidermidis R005 (S. epidermidis R005; Table 1) | Minimum Inhibitory Concentration, E. faecalis L239 (E. faecalis L239) | further results |
| --- | --- | --- | --- | --- | --- | --- |
| O=C(CSc1cc(Cl)nc(Cl)c1)N[C@@H]1C(=O)N2C(C(=O)O)=C(/C=C/CSc3ncnc4[nH]ncc34)CS[C@H]12 [Compound I-7, (6R,7R)-7-({2-[(2,6-dichloro-4-pyridinyl)sulfanyl]acetyl}amino)-8-oxo-3-[(E)-3-(1H-pyrazolo[3,4-d]pyrimidin-4-ylsulfanyl]-1-propenyl]-5-thia-1-azabicyclo[4.2.0]oct-2-ene-2-carboxylic acid] |  |  |  |  |  | MIC (S. aureus 77; Table 2): 0.25 µg/mL (≈ 0.409 µM); MIC (S. aureus K311): 0.5 µg/mL (≈ 0.819 µM); MIC (E. faecalis EFS004): 0.5 µg/mL (≈ 0.819 µM); MIC ([1]; Table 2): < 0.008 µg/mL; MIC (S. epidermidis R005; Table 2): 0.25 µg/mL (≈ 0.409 µM) |
| Nc1cc(N)nc(SC/C=C/C2=C(C(=O)O)N3C(=O)[C@@H](NC(=O)CSc4cc(Cl)nc(Cl)c4)[C@H]3SC2)n1 [Compound I-8, (6R,7R)-3-{(E)-3-[(4,6-diamino-2-pyrimidinyl)sulfanyl]-1-propenyl}-7-({2-[(2,6-dichloro-4-pyridinyl)sulfanyl]acetyl}amino)-8-oxo-5-thia-1-azabicyclo[4.2.0]oct-2-ene-2-carboxylic acid] |  |  |  |  |  | MIC (S. aureus 77; Table 2): 0.25 µg/mL (≈ 0.416 µM); MIC (S. aureus K311): 0.5 µg/mL (≈ 0.833 µM); MIC (E. faecalis EFS004): 1 µg/mL (≈ 1.67 µM); MIC ([1]; Table 2): 0.031 µg/mL (≈ 0.0516 µM); MIC (S. epidermidis R005; Table 2): 0.5 µg/mL (≈ 0.833 µM) |
| Nc1nc(SC/C=C/C2=C(C(=O)O)N3C(=O)[C@@H](NC(=O)CSc4cc(Cl)nc(Cl)c4)[C@H]3SC2)nc2[nH]ncc12 [Compound I-9, (6R,7R)-3-{(E)-3-[(4-amino-1H-pyrazolo[3,4-d]pyrimidin-6-yl)sulfanyl]-1-propenyl}-7-({2-[(2,6-dichloro-4-pyridinyl)sulfanyl]acetyl}amino)-8-oxo-5-thia-1-azabicyclo[4.2.0]oct-2-ene-2-carboxylic acid] |  |  |  |  |  | MIC (S. aureus 77; Table 2): 0.25 µg/mL (≈ 0.4 µM); MIC (S. aureus K311): 1 µg/mL (≈ 1.6 µM); MIC (E. faecalis EFS004): 1 µg/mL (≈ 1.6 µM); MIC ([1]; Table 2): 0.031 µg/mL (≈ 0.0496 µM); MIC (S. epidermidis R005; Table 2): 0.5 µg/mL (≈ 0.799 µM) |
| Nc1nc(O)cc(SC/C=C/C2=C(C(=O)O)N3C(=O)[C@@H](NC(=O)CSc4cc(Cl)nc(Cl)c4)[C@H]3SC2)n1 [Compound I-10, (6R,7R)-3-{(E)-3-[(2-amino-6-hydroxy-4-pyrimidinyl)sulfanyl]-1-propenyl}-7-({2-[(2,6-dichloro-4-pyridinyl)sulfanyl]acetyl}amino)-8-oxo-5-thia-1-azabicyclo [4.2.0]oct-2-ene-2-carboxylic acid] |  |  |  |  |  | MIC (S. aureus 77; Table 2): 0.25 µg/mL (≈ 0.416 µM); MIC (S. aureus K311): 0.5 µg/mL (≈ 0.831 µM); MIC (E. faecalis EFS004): 1 µg/mL (≈ 1.66 µM); MIC ([1]; Table 2): 0.016 µg/mL (≈ 0.0266 µM); MIC (S. epidermidis R005; Table 2): 0.25 µg/mL (≈ 0.416 µM) |
| CSc1nc(C)cc(SC/C=C/C2=C(C(=O)O)N3C(=O)[C@@H](NC(=O)CSc4cc(Cl)ccc4Cl)[C@H]3SC2)n1 [Compound I-28, (6R,7R)-7-({2-[(2,5-dichlorophenyl)sulfanyl]acetyl}amino)-3-((E)-3-{[6-methyl-2-(methylsulfanyl)-4-pyrimidinyl]sulfanyl}-1propenyl)-8-oxo-5-thia-1-azabicyclo [4.2.0]oct-2-ene-2-carboxylic acid] |  |  |  |  |  | MIC (S. aureus 77; Table 1): 0.25 µg/mL (≈ 0.397 µM); MIC (S. aureus 241): 32 µg/mL (≈ 50.8 µM); MIC ([1]; Table 1): 0.016 µg/mL (≈ 0.0254 µM); MIC (S. epidermidis R005; Table 1): 0.25 µg/mL (≈ 0.397 µM); MIC (E. faecalis L239): 0.5 µg/mL (≈ 0.794 µM) |
| CC[n+]1c(N)cc(N)nc1SC/C=C/C1=C(C(=O)O)N2C(=O)[C@@H](NC(=O)CSc3cc(Cl)ccc3Cl)[C@H]2SC1 [Compound I-29, (6R,7R)-4,6-diamino-2-({(E)-3-[2-carboxy-7-({2-[(2,5-dichlorophenyl)sulfanyl]acetyl}amino)-8-oxo-5-thia-1-azabicyclo[4.2.0]oct-2-en-3-yl]-2-propenyl}sulfanyl)-1-ethylpyrimidin-1-ium] | 0.063 µg/mL | 1 µg/mL | <0.008 µg/mL | 0.031 µg/mL | 0.13 µg/mL |  |
| CNc1cc(N)nc(SC/C=C/C2=C(C(=O)O)N3C(=O)[C@@H](NC(=O)CSc4cc(Cl)ccc4Cl)[C@H]3SC2)n1 [Compound I-30, (6R,7R)-3-((E)-3-{[4-amino-6-(methylamino)-2-pyrimidinyl]sulfanyl}-1propenyl)-7-({2-[(2,5-dichlorophenyl)sulfanyl]acetyl}amino)-8-oxo-5-thia-1-azabicyclo [4.2.0]oct-2-ene-2-carboxylic acid] |  |  |  |  |  | MIC (S. aureus 77; Table 1): 0.5 µg/mL (≈ 0.815 µM); MIC (S. aureus 241): 16 µg/mL (≈ 26.1 µM); MIC ([1]; Table 1): 0.016 µg/mL (≈ 0.0261 µM); MIC (S. epidermidis R005; Table 1): 0.5 µg/mL (≈ 0.815 µM); MIC (E. faecalis L239): 2 µg/mL (≈ 3.26 µM) |
| Cc1c(N)nc[n+](C/C=C/C2=C(C(=O)O)N3C(=O)[C@@H](NC(=O)CSc4cc(Cl)ccc4Cl)[C@H]3SC2)c1N [Compound I-31] | 1 µg/mL | 8 µg/mL | 0.016 µg/mL | 0.25 µg/mL | 2 µg/mL |  |
| Nc1nc2cc(N)[n+](C/C=C/C3=C(C(=O)O)N4C(=O)[C@@H](NC(=O)CSc5cc(Cl)ccc5Cl)[C@H]4SC3)cn2n1 [Compound I-32] | 0.5 µg/mL | 4 µg/mL | 0.016 µg/mL | 0.25 µg/mL | 1 µg/mL |  |
| Cc1nc(N)cc[n+]1C/C=C/C1=C(C(=O)O)N2C(=O)[C@@H](NC(=O)CSc3cc(Cl)ccc3Cl)[C@H]2SC1 [Compound I-33] | 0.26 µg/mL | 2 µg/mL | <0.008 µg/mL | 0.063 µg/mL | 0.5 µg/mL |  |
| Nc1nc[n+](C/C=C/C2=C(C(=O)O)N3C(=O)[C@@H](NC(=O)CSc4cc(Cl)ccc4Cl)[C@H]3SC2)c2c1CCC2 [Compound I-34] | 0.5 µg/mL | 4 µg/mL | <0.008 µg/mL | 0.13 µg/mL | 1 µg/mL |  |
| Nc1nc[n+](C/C=C/C2=C(C(=O)O)N3C(=O)[C@@H](NC(=O)CSc4cc(Cl)ccc4Cl)[C@H]3SC2)c(N)c1N [Compound I-35] | 0.25 µg/mL | 2 µg/mL | 0.016 µg/mL | 0.25 µg/mL | 0.5 µg/mL |  |
| Nc1cc(N)[n+](C/C=C/C2=C(C(=O)O)N3C(=O)[C@@H](NC(=O)CSc4cc(Cl)ccc4Cl)[C@H]3SC2)cn1 [Compound I-36] | 0.13 µg/mL | 1 µg/mL | <0.008 µg/mL | 0.063 µg/mL | 0.25 µg/mL |  |
| Cc1nc(N)cc(N(C)C)[n+]1C/C=C/C1=C(C(=O)O)N2C(=O)[C@@H](NC(=O)CSc3cc(Cl)ccc3Cl)[C@H]2SC1 [Compound I-37, 4-amino-1-{(E)-3-[(6R,7R)-2-carboxy-7-({2-[(2,5-dichlorophenyl)sulfanyl]acetyl}amino)-8-oxo-5-thia-1-azabicyclo[4.2.0]oct-2-en-3-yl]-2-propenyl}-6-(dimethylamino)-2-methylpyrimidin-1-ium] | 0.25 µg/mL | 4 µg/mL | 0.016 µg/mL | 0.25 µg/mL | 0.5 µg/mL |  |
| CNc1cc(N)nc(C)[n+]1C/C=C/C1=C(C(=O)O)N2C(=O)[C@@H](NC(=O)CSc3cc(Cl)ccc3Cl)[C@H]2SC1 [Compound I-38, 4-amino-1-{(E)-3-[(6R,7R)-2-carboxy-7-({2-[(2,5-dichlorophenyl)sulfanyl]acetyl}amino)-8-oxo-5-thia-1-azabicyclo[4.2.0]oct-2-en-3-yl]-2-propenyl}-2-methyl-6-(methylamino)pyrimidin-1-ium] | 1 µg/mL | 8 µg/mL | 0.031 µg/mL | 0.5 µg/mL | 1 µg/mL |  |
